From patent US20110077230A1, “COPPER ORGANOCOMPLEXES, USE THEREOF AS ANTITUMOR MEANS AND FOR PROTECTING HEALTHY TISSUE FROM IONIZING RADIATION” (CHARITE - UNIVERSITATSMEDIZIN BERLIN, priority 2008, published 2011)

Key:
melanoma B 16 [1] = experiment: B 16 melanoma in mice, peroral administration versus intraabdominal injection; type: in vivo, mice of the line C 57Bl; parameters: Average weight of tumor: unit not given here; settings: for Average weight of tumor: day 16
Method: The melanoma B 16 was implanted in 23 mice of the line C 57Bl by subcutaneous injection into the right thigh. The animals were divided into five groups of four to five mice each.
Group I received complex A at a dosage of 7 mg/kg as a suspension in olive oil which was administered perorally 3, 5, 7 and 9 days after transplantation of the tumor.
Group II was treated as group I, but using a dosage of 10 mg/kg administered on the 3rd, 4th, 5th, 6th, 7th, 8th, 9th and 10th day.
Group III was treated as group II, but using a dosage of 15 mg/kg.
Group IV received complex A 3, 5, 7 and 9 days after transplantation of the tumor at a dosage of 7 mg/kg, dissolved in DMSO, to which end the solution was administered by injection in the form of a 4% suspension in physiological saline.
Group V received no treatment.
On day 16 of the experiment the animals were sacrificed and examined.

thymocytes [2] = experiment: Membrane potential of thymocytes (fluorescent dye); type: cell-based, rats of the Wistar line
Method: (§1) The Ehrlich ascites carcinoma (EAC) was obtained from white male mice of the strain MNR1 and the thymocytes from the thymus of rats of the Wistar line. Vitality of the cells was tested by vital staining using trypan blue and experiments and determined to be no less than 95% in all experiments. The NADH state in the EAC cells was assessed with reference to their fluorescence intensity. Measurement of the intracellular calcium concentration was performed according to the standard methodology of fluorescence using chlortetracycline. The membrane potential was measured using the fluorescent dye No. 1104. NADH is a source of electrons in the oxidative phosphorylation process. […] These effects are directed to inhibiting the NAD-dependent dehydrogenase. As a result, the respiratory chain in the tumor cells is inhibited.
Moreover, the complexes A and C have an influence on the membrane potential of thymocytes.

[3] = tested on: hematopoietic cells in the spleen; experiment: Radioprotective effect in irradiated mice; type: in vivo, white mice; settings: 6 Gray; 5 mg/kg two hours prior to and three days after irradiation; day 9
Method: White mice of no particular race were irradiated with a sublethal dose of 6 Gray. […] The animals were sacrificed on day 9 after irradiation, and the number of hematopoietic cells in the spleen was determined. No hematopoietic cells were detected in the spleen of untreated animals.

[4] = tested on: Hep-2 tumor cells of human laryngeal carcinoma; experiment: Copper uptake by Hep-2 cells (EPR); type: cell-based
Method: Complex A dissolved in Tween 80 was mixed with liposomes from lecithin. This mixture was added with a culture of Hep-2 cells, and the EPR spectra were recorded over time. A culture having no complex A preparation was measured for comparison. The EPR spectra allow quantitative determination of the copper content in the tumor cells. […] This corresponds to an intake of 10 copper-containing molecules in a cell. This saturation value of the cells is reached within 1.5 to 2 hours (FIG. 21). In addition, the cell suspension was purified by filtration, and the filtrate containing the cellular components was fractionated using a centrifuge.

[5] = tested on: human mammary gland tumor cells, T4N2M0 stage; experiment: In vitro effect on human mammary gland tumor cells, Experiment 2; type: cell-based
Method: Tumor cells were collected from the surgical material of female patients suffering from mammary carcinoma at two different stages. The tumor tissue was added with sterile 0.25% trypsin solution and centrifuged repeatedly in RPMI-1640 nutrient medium for 15 minutes at 1500 revolutions per minute. The amount of resulting cells was counted and the suspension of tumor cells divided into five equal groups. The RPMI-1640 nutrient medium was added with 12% fetal calf serum. The cells were incubated for 48 h at 37° C. in a 5% CO2 stream.
The preparations were dissolved in 4% DMSO and physiological saline and acidified with HCl.
Two experiments were performed using cancer cells derived from tumors of different stages. To differentiate the various stages of cancer, the TNM classification is used internationally which takes into account the tumor size (T), lymph node affection (N=nodal status) and the extent of metastasis (M).
(T3: large tumor spreading into the tissue surrounding the breast; N2: metastases up to 9 axillary lymph nodes, M0: no distant metastases). A suspension including 40 million cells was added with 50 μl of each preparation.
The 5 groups with cancer cells received the following:
After subjecting the preparations to flow incubation for 60 minutes, trypan blue stained cells were produced, and dead cells and apoptosis could be determined; dead cells and apoptotic cells were determined in specific units of time and morphological findings.

lymphoma cells (BJAB) = experiment: Combined administration of complex A and cytarabine, DNA fragmentation; type: cell-based, human; settings: 48 hours
Method: Incubation was performed for 48 hours at 37° C. and 5% CO2, carrying along zero and solvent controls. DNA fragmentation is determined by flow cytometry after staining the cells with propidium iodide.

melanoma B 16 [6] = experiment: B 16 melanoma in mice, intraabdominal administration; type: in vivo, mice of the line C 57Bl; settings: for Average volume of tumor / Average weight of tumor: days 3, 5, 7, 9
Method: The melanoma B 16 was implanted in 20 mice of the line C 57Bl by subcutaneous injection into the right thigh. The animals were divided into four groups of five mice each. Group I received complex A at a dosage of 7 mg/kg, dissolved in DMSO, which was administered intraabdominally in a 4% suspension in physiological saline. Each administration was performed 3, 5, 7 and 9 days after trans-plantation of the tumor.
Group II was treated as group I, but using a dosage of 5 mg/kg.
Group III was treated as group I, but received 5 mg/kg of melphalan hydrochloride instead of complex A.
Group IV remained untreated.

thymocytes [7] = experiment: Cytosolic calcium (chlortetracycline fluorescence) in thymocytes; type: cell-based, rats of the Wistar line; settings: depending on the dose
Method: as §1
The concentration of intracellular calcium is a trigger for a number of intracellular processes (FIG. 17c, 17d).

Substance: Copper-sarcolysine hydrochloride complex [complex A]
- % inhibition, mass percent (melanoma B 16 [1]; Group I: peroral 7 mg/kg): 62.0%
- % inhibition, volume percent (melanoma B 16 [1]; Group I: peroral 7 mg/kg): 84.1%
- Average volume of tumor (melanoma B 16 [1]; Group I: peroral 7 mg/kg): 1.39 cm^3
- Average weight of tumor (melanoma B 16 [1]; Group I: peroral 7 mg/kg in olive oil, days 3, 5, 7, 9): 0.96 ± 0.14
- % inhibition, mass percent (melanoma B 16 [1]; Group II: peroral 10 mg/kg): 73.10%
- % inhibition, volume percent (melanoma B 16 [1]; Group II: peroral 10 mg/kg): 76.0%
- Average volume of tumor (melanoma B 16 [1]; Group II: peroral 10 mg/kg): 1.55 cm^3
- Average weight of tumor (melanoma B 16 [1]; Group II: peroral 10 mg/kg, days 3 to 10): 0.68 ± 0.34
- % inhibition, mass percent (melanoma B 16 [1]; Group III: peroral 15 mg/kg): 100%
- % inhibition, volume percent (melanoma B 16 [1]; Group III: peroral 15 mg/kg): 100%
- Average volume of tumor (melanoma B 16 [1]; Group III: peroral 15 mg/kg): 0 cm^3
- Average weight of tumor (melanoma B 16 [1]; Group III: peroral 15 mg/kg, days 3 to 10): 0
- % inhibition, mass percent (melanoma B 16 [1]; Group IV: injection 7 mg/kg): 68.0%
- % inhibition, volume percent (melanoma B 16 [1]; Group IV: injection 7 mg/kg): 76.7%
- Average volume of tumor (melanoma B 16 [1]; Group IV: injection 7 mg/kg): 1.5 cm^3
- Average weight of tumor (melanoma B 16 [1]; Group IV: injection 7 mg/kg in DMSO/physiological saline, days 3, 5, 7, 9): 1.025 ± 0.39
- fate of the tumor (melanoma B 16 [1]; group 3: peroral 15 mg/kg): disappeared completely
- influence on the membrane potential of thymocytes (thymocytes [2]): hyperpolarization of the cell membranes
- number of colonies of hematopoietic cells in the spleen [3]: about 40 colonies
- copper absorbed by Hep-2 cells ([4]; complex A in Tween 80 with lecithin liposomes, saturation value): 4.5×10^13 spin per gram
- intake of copper-containing molecules in a cell ([4]; corresponds to the spin value): 10 molecules in a cell
- intracellular accumulation of the copper complex ([4]; fractionated filtrate, EPR signal of copper): accumulated almost entirely in the nuclear chromatin
- Living cells, % ([5]; Experiment 2, T4N2M0): 18.0 ± 1.71%
- Dead cells, % ([5]; Experiment 2, T4N2M0, 40 million cells, 50 μl of preparation): 82.0 ± 1.78%
- synergy effect with cytarabine, induction of apoptosis (lymphoma cells (BJAB)): 129%
- Apoptotic index AI (melanoma B 16 [6]; 5 mg/kg intraabdominally): 3.68 ‰
- Bone marrow index MI BM (melanoma B 16 [6]; 5 mg/kg intraabdominally): 3.975 ‰
- Inhibition of tumor growth, mass percent (melanoma B 16 [6]; 5 mg/kg intraabdominally): mass percent 84.44%
- Inhibition of tumor growth, volume percent (melanoma B 16 [6]; 5 mg/kg intraabdominally): volume percent 80.00%
- Mitotic index of tumor cells MI (melanoma B 16 [6]; 5 mg/kg intraabdominally): 2.175 ‰
- Average volume of tumor (melanoma B 16 [6]; 5 mg/kg intraabdominally): 0.436 cm^3
- Average weight of tumor (melanoma B 16 [6]; 5 mg/kg intraabdominally): 202.25 mg
- Apoptotic index AI (melanoma B 16 [6]; 7 mg/kg intraabdominally): 4.25 ‰
- Bone marrow index MI BM (melanoma B 16 [6]; 7 mg/kg intraabdominally): 3.575 ‰
- Inhibition of tumor growth, mass percent (melanoma B 16 [6]; 7 mg/kg intraabdominally): mass percent 89.5%
- Inhibition of tumor growth, volume percent (melanoma B 16 [6]; 7 mg/kg intraabdominally): volume percent 98.67%
- Mitotic index of tumor cells MI (melanoma B 16 [6]; 7 mg/kg intraabdominally): 1.3. ‰
- Average volume of tumor (melanoma B 16 [6]; 7 mg/kg intraabdominally): 0.029 cm^3
- Average weight of tumor (melanoma B 16 [6]; 7 mg/kg intraabdominally): 136.8 mg
- concentration of cytosolic calcium (thymocytes [7]): increase
